According to patent US9732060B2, “Aminotriazine derivative and pharmaceutical composition comprising the same” (Shionogi & Co., Ltd., priority 2013, dated 2017):
Like-named read-outs stand apart in the source and are kept apart here.

Tests used:
[1] = Protein binding test (equilibrium dialysis, unbound fraction in serum); type: in vitro ADME; conditions: 37° C.
Experimental: The unbound fraction of the present compound in serum was measured using serum of various species.
The reactive conditions are as follows: Evaluation method, Equilibrium dialysis; Reaction time, 24 hours; Reaction temperature, 37° C.; Concentration of the present compound, 2 μg/mL
The test solution was added to each serum and the mixture was agitated to prepare the serum samples at the concentration mentioned above. Each serum sample was added into one side of the cell and phosphate buffered saline (PBS) was added into the other side to perform equilibrium dialysis at 37° C. for 24 hours. Then, the concentration of the compounds in the samples that were obtained from both sides was measured by LC/MS/MS.
The ratio of PBS concentration to serum concentration is expressed as unbound fraction (fu),

CYP2D6 = CYP2D6 (Homo sapiens (Human), UniProt P10635); experiment: CYP inhibition test, CYP2D6; type: in vitro ADME; conditions: pooled human hepatic microsome; dextromethorphan O-demethylation
Experimental: (§1) Using commercially available pooled human hepatic microsome, and employing, as markers, 7-ethoxyresorufin-O-deethylation (CYP1A2), tolbutamide methyl-hydroxylation (CYP2C9), mephenytoin 4′-hydroxylation (CYP2C19), dextromethorphan O-demethylation (CYP2D6), and terfenedine hydroxylation as typical substrate metabolism reactions of human main five CYP enzyme forms (CYP1A2, 2C9, 2C19, 2D6, 3A4), an inhibitory degree of each metabolite production amount by a test compound was assessed.
(§2) The reaction conditions were as follows: substrate, 0.5 μmol/L ethoxyresorufin (CYP1A2), 100 μmol/L tolbutamide (CYP2C9), 50 μmol/L S-mephenitoin (CYP2C19), 5 μmol/L dextromethorphan (CYP2D6), 1 μmol/L terfenedine (CYP3A4); reaction time, 15 minutes; reaction temperature, 37° C. enzyme, pooled human hepatic microsome 0.2 mg protein/mL; test, drug concentration, 1.0, 5.0, 10, 20 μmol/L (four points).
(§3) Each five kinds of substrates, human hepatic microsome, or a test drug in 50 mmol/L Hepes buffer as a reaction solution was added to a […] at the composition as described above, NADPH, as a cofactor was added to initiate metabolism reactions as markers and, after the incubation at 37° C. for 15 minutes, a methanol/acetonitrile=1/1 (v/v) solution was added to stop the reaction. After the centrifugation at 3000 rpm for 15 minutes, resorufin (CYP1A2 metabolite) in the supernatant was quantified by a fluorescent multilabel counter and tributamide hydroxide (CYP2CP metabolite), mephenytoin 4′hydroxide (CYP2C19 metabolite), […] (CYP2D6 metabolite), and terfenadine alcohol (CYP3A4 metabolite) were quantified by LC/MS/MS.
(§4) Addition of only DMSO being a solvent dissolving a drug to a reaction system was adopted as a control (100%), remaining activity (%) was calculated at each concentration of a test drug added as the solution and IC50 was calculated by reverse presumption by a logistic model using a concentration and an inhibition rate.

CYP3A4 = CYP3A4 (Homo sapiens (Human), UniProt P08684); experiment: CYP inhibition test, CYP3A4; type: in vitro ADME; conditions: pooled human hepatic microsome; terfenedine hydroxylation
Experimental: as §1, §2, §3, §4

[2] = Pharmacokinetic test (BA, CLtot); type: in vivo; conditions: rat, plasma, SD rats
Experimental: • (1) Animals: SD rats were used • (2) Breeding conditions: SD rats were allowed to freely take solid food and sterilized tap water. • (3) Dose and grouping: orally or intravenously administered at a predetermined dose; grouping was as follows (Dose depends on the compound)
Oral administration: 1 mg/kg (n=2)
The total body clearance (CLtot) was calculated by dividing the dose by the AUC of the intravenous administration group.

[3] = Metabolism stability test, pooled human hepatic microsomes; type: in vitro ADME; conditions: remaining rate, human liver microsomes, 30 minutes, compound concentration 0.5 μmol/L
Experimental: Using commercially available pooled human hepatic microsomes, a test compound is reacted for a constant time, a remaining rate is calculated by comparing a reacted sample and an unreacted sample, thereby, a degree of metabolism in liver is assessed.
A reaction was performed (oxidative reaction) at 37° C. for 0 minute or 30 minutes in the presence of 1 mmol/L NADPH in 0.2 mL of a buffer (50 mmol/L tris-HCl pH 7.4, 150 mmol/L potassium chloride, 10 mmol/L magnesium chloride) containing 0.5 mg protein/mL of human liver microsomes. After the reaction, 50 μL of the reaction solution was added to 100 μL of a methanol/acetonitrile=1/1 (v/v) mixed and centrifuged at 3000 rpm for 15 minutes. The test compound in the supernatant was quantified by LC/MS/MS, and a remaining amount of the test compound after the reaction was calculated, letting a compound amount at 0 minute reaction time to be 100%.
The remaining rate at the compound concentration 0.5 μmol/L are shown below.

[4] = Solubility test (1% DMSO, artificial intestinal juice pH 6.8); type: physicochemical; conditions: artificial intestinal juice pH 6.8 with 1% DMSO, 25 °C, fassgf or other biorelevant, kinetic from dmso stock, artificial intestinal juice pH 6.8, 25 degrees Celsius, read-out: Solubulity
Experimental: The solubility of a compound was determined under a condition in which 1% DMSO was added. 10 mmol/L compound solution was prepared using DMSO, and then 2 μL of the compound solution was added to 198 μL of artificial intestinal juice in pH 6.8 (to 250 mL of 0.2 mol/L potassium dihydrogen phosphate reagent solution was added 118 mL of 0.2 mol/L NaOH reagent solution and water to provide a final volume of 1000 mL). After standing at 25 degrees Celsius for 18 hours, the mixed solution was filtrated with suction. The filtrate was diluted twice with methanol/water (1/1), and then a concentration in the filtration was measured with HPLC or LC/MS/MS by the absolute calibration method.

CYP2C9 = CYP2C9 (Homo sapiens (Human), UniProt P11712); experiment: CYP inhibition test, CYP2C9; type: in vitro ADME; conditions: pooled human hepatic microsome; tolbutamide methyl-hydroxylation
Experimental: as §1, §2, §3, §4

CYP1A2 = CYP1A2 (Homo sapiens (Human), UniProt P05177); experiment: CYP inhibition test, CYP1A2; type: in vitro ADME; conditions: pooled human hepatic microsome; 7-ethoxyresorufin-O-deethylation
Experimental: as §1, §2, §3, §4

CYP2C19 = CYP2C19 (Homo sapiens (Human), UniProt P33261); experiment: CYP inhibition test, CYP2C19; type: in vitro ADME; conditions: pooled human hepatic microsome; mephenytoin 4′-hydroxylation
Experimental: as §1, §2, §3, §4

Rat P2X3 receptor = Rat P2X3 receptor (Rattus norvegicus (Rat), UniProt P49654); experiment: Evaluation of rat P2X3 receptor inhibitory activity in the presence of rat serum albumin (RSA); type: cell-based; conditions: read-out: ratP2X3 + RSA IC50
Experimental: Rat P2X3 receptor gene (GenBank accession number NM_031075) was expressed in C6BU-1 cell. The C6BU-1 cells were seeded in a 96-well micro titer plate at a concentration of 2500 cells/well and cultured in the medium (7.0% fetal bovine serum, 7.0% horse serum, and 1% antibiotic and antifungal in DMEM) for one day at 37° C. under 5% carbon dioxide atmosphere. The plasmid was transfected into the cells using transfection reagent FuGENE6 (Promega). The transfected cells were cultured in the medium for one day at 37° C. under 5% carbon dioxide atmosphere. The medium was replaced with 4 μM Fluo-4-AM solution (pH 7.5) containing 20 mM HEPES, 137 mM NaCl, 5.27 mM KCl, 0.9 mM MgCl2, 1.26 mM CaCl2, 5.6 mM D-glucose, 2.5 mM probenecid, 10% RSA, and 0.08% Pluronic F-127, and incubated at 37° C. under 5% dioxide carbon atmosphere for one hour. The plate was washed with washing buffer (20 mM HEPES, 137 mM NaCl, 5.27 mM KCl, 0.9 mM MgCl2, 1.26 mM CaCl2, 5.6 mM D-glucose, 2.5 mM probenecid, pH 7.5), and each well was added with 40 μL of this buffer. The plate was placed in High-Throughput Screening System FDSS 3000 (Hamamatsu Photonics K.K.). Measurement of fluorescence intensity by FDSS 3000 was started, and 40 μL of DMSO solutions containing 1% RSA (final concentrations) and different concentrations of the test compound as prepared by dilution with dilution buffer (20 mM HEPES, 137 mM NaCl, 5.27 mM KCl, 0.9 mM MgCl2, 1.26 mM CaCl2, 5.6 mM D-glucose, 2.5 mM probenecid, 0.1% Pluronic F-127, pH 7.5) were dispensed to each well through the built-in automatic dispenser. Five minutes after, 50 nM ATP solution (50 μL) prepared by dilution with the dilution buffer was dispensed through the built-in automatic dispenser, and the measurement of fluorescence intensity was continued for 4 min. For each well, the specific maximum fluorescence intensity was calculated as the ratio of the maximum fluorescence intensity after addition of the ATP solution to the fluorescence intensity at the starting of the measurement. […] FDSS software (Hamamatsu Photonics K.K.) was used for calculation of the specific maximum fluorescence intensity. IC50 was calculated using Microsoft Excel (Microsoft Corporation) and XLfit (idbs Ltd.).

human P2X3 receptor = human P2X3 receptor (Homo sapiens (Human), UniProt P56373); experiment: Evaluation of human P2X3 receptor inhibitory activity in the presence of human serum albumin (HSA); type: cell-based; conditions: in the presence of 1% HSA (final concentration)
Experimental: Stably expressing cell line (C6BU-1 cell transfected with human P2X3 receptor gene (GenBank accession number Y07683; was used. The cells were seeded in a 96-well microtiter plate at a concentration of 8000 cells/well and cultured in the medium (7.0% fetal bovine serum, 7.0% horse serum, 1% antibiotic and antifungal, and 2.0% glutamine in DMEM) for one day at 37° C. under 5% carbon dioxide atmosphere. The medium was replaced with 4 μM Fluo-3-AM solution (20 mM HEPES, 137 mM NaCl, 5.37 mM KCl, 0.9 mM MgCl2, 1.26 mM CaCl2, 5.6 mM D-glucose, 2.5 mM probenecid, 0.5% BSA, and 0.04% Pluronic F-127, pH 7.5) and incubated at 37° C. under 5% dioxide carbon atmosphere for one hour. The plate was washed with washing buffer (20 mM HEPES, 137 mM NaCl, 5.27 mM KCl, 0.9 mM MgCl2, 1.26 mM CaCl2, 5.6 mM D-glucose, 2.5 mM probenecid, pH 7.5), and each well was added with 40 μL of this buffer. The plate was placed in High-Throughput Screening System FDSS 3000 (Hamamatsu Photonics K.K.). Measurement of fluorescence intensity by FDSS 3000 was started, and 40 μL of DMSO solutions containing 1% HSA (final concentrations) different concentrations of the test compound as prepared by dilution with dilution buffer (20 mM HEPES, 137 mM NaCl, 5.27 mM KCl, 0.9 mM MgCl2, 1.26 mM CaCl2, 5.6 mM D-glucose, 2.5 mM probenecid, 0.1% Pluronic F-127, pH 7.5) were dispensed to each well through the built-in automatic dispenser. Five minutes after, 50 nM ATP solution (50 μL) prepared by dilution with the dilution buffer was dispensed through the built-in automatic dispenser, and the measurement of fluorescence intensity was continued for 4 min. For each well, the specific maximum fluorescence intensity was calculated as the ratio of the maximum fluorescence intensity after addition of the ATP solution to the fluorescence intensity at the starting of the measurement. […] FDSS software (Hamamatsu Photonics K.K.) was used for calculation of the specific maximum fluorescence intensity. IC50 was calculated using Microsoft Excel (Microsoft Corporation) and XLfit (idbs Ltd.)

human P2X3 receptor, sequence (P56373 whole entry): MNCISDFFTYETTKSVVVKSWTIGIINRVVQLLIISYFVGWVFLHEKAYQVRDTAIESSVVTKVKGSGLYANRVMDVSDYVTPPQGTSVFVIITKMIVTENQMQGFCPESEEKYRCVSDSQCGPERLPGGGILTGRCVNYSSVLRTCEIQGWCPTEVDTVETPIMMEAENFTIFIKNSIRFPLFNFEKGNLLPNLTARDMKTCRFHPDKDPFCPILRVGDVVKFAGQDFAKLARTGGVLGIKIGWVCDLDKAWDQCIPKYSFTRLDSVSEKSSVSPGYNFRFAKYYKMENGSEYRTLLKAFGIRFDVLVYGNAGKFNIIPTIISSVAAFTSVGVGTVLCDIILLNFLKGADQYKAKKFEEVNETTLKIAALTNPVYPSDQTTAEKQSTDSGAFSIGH
CYP2C9, sequence (P11712 whole entry): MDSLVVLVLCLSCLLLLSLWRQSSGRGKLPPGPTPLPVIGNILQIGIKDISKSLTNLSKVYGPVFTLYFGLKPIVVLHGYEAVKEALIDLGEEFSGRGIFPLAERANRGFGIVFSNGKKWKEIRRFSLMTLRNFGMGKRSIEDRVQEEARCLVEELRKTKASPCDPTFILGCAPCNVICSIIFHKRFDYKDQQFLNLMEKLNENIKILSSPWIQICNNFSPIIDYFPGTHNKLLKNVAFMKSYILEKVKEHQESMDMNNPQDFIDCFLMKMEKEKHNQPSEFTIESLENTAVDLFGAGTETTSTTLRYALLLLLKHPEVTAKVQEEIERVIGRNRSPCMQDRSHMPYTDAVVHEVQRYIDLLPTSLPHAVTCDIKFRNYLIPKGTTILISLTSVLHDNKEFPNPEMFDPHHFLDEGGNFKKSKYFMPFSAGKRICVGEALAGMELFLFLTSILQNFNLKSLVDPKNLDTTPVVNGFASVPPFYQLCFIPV
CYP2C19, sequence (P33261 whole entry): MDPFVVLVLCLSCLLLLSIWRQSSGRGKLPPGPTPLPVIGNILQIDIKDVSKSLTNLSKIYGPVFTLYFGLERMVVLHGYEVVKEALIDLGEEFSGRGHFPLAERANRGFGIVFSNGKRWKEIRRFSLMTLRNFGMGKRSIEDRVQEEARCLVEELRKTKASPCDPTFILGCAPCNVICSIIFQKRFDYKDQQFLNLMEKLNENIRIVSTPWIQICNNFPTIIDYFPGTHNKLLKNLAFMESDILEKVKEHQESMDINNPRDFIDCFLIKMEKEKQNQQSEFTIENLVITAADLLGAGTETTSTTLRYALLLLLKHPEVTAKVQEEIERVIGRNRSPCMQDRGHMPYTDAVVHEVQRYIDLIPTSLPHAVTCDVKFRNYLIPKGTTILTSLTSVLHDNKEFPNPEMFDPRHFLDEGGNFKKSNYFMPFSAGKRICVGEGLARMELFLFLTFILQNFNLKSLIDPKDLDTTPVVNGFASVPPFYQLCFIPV
Rat P2X3 receptor, sequence (P49654 whole entry): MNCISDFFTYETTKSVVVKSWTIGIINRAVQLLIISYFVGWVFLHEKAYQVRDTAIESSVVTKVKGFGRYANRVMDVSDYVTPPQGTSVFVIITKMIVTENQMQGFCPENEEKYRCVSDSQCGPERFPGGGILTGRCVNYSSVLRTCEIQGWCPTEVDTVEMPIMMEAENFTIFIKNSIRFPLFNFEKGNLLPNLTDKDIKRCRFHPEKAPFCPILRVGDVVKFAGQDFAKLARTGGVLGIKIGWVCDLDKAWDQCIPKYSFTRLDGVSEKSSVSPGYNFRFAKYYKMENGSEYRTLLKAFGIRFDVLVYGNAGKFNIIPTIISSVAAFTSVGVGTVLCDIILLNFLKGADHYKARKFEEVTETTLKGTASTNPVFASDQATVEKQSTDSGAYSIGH
CYP2D6, sequence (P10635 whole entry): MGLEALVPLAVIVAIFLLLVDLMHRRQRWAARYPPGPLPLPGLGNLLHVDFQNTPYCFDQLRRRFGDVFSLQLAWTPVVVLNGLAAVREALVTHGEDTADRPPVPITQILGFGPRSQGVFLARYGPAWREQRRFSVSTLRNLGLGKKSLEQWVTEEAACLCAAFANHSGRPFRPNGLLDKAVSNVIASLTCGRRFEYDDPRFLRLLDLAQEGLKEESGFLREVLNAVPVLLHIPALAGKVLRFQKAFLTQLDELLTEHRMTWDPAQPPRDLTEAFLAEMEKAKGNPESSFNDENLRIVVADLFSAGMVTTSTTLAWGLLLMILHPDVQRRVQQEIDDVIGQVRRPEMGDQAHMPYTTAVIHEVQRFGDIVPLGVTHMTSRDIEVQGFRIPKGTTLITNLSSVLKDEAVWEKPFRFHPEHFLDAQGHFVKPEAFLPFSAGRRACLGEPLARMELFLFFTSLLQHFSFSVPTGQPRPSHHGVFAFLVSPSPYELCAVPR
CYP1A2, sequence (P05177 whole entry): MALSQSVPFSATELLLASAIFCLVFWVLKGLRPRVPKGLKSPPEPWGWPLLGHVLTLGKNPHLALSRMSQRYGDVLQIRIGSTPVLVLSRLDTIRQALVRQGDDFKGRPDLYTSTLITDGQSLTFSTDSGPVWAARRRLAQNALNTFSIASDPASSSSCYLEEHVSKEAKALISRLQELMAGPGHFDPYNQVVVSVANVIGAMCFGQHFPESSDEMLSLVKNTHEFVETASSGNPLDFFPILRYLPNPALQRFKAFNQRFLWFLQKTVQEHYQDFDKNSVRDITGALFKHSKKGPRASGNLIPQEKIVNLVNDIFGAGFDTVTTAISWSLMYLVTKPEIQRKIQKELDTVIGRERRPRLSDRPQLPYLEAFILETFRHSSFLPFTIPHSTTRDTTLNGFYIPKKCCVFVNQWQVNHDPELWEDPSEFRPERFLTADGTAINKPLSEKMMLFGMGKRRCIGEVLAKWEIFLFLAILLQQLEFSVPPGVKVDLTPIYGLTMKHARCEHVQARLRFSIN
CYP3A4, sequence (P08684 whole entry): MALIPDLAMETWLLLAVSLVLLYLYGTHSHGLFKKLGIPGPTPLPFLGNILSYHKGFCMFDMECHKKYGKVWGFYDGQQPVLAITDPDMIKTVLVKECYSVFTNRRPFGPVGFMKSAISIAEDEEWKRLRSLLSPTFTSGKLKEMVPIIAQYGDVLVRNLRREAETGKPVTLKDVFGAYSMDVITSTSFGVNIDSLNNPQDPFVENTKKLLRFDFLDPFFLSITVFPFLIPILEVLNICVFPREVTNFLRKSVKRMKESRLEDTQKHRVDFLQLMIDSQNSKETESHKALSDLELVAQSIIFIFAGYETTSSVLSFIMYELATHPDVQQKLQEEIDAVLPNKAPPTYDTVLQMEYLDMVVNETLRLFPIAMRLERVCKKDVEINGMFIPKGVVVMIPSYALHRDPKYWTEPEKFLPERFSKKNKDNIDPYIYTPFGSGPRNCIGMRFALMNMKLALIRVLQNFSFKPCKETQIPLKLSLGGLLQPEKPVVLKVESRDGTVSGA

Row | Metabolism Stability [3] [%] | solubility at 18 h [4] [µM] | Compound | fraction unbound at 24 h, 2 μg/mL [1] | IC50 (human P2X3 receptor) [µM] | further results
1 | 91 | > 50 | Cc1ccc(Cn2c(=O)n(C[C@H](C)C(=O)O)c(=O)[nH]/c2=N\c2ccc(Oc3cccc(F)n3)cc2)cc1 [Compound I-057] | 0.017 |  | IC50 (CYP2D6): > 20 µM; IC50 (CYP3A4): > 20 µM; clearance ([2]; intravenous administration 0.5 mg/kg): 22.9 mL/min/kg; AUC ([2]; intravenous administration 0.5 mg/kg, read-out: AUC (iv)): 367 ng·h/mL; AUC ([2]; oral administration 1 mg/kg, read-out: AUC (po)): 487 ng·h/mL; IC50 (CYP2C9): > 20 µM; IC50 (CYP1A2): > 20 µM; IC50 (CYP2C19): > 20 µM
2 | 97 | > 50 | O=c1[nH]/c(=N\c2ccc(Oc3ncccc3F)cc2)n(Cc2ccc(Cl)cc2)c(=O)n1[C@H]1C[C@H](C(=O)O)C1 [Compound I-063] |  |  | IC50 (CYP2D6): > 20 µM; IC50 (CYP3A4): > 20 µM; IC50 (CYP2C9): > 20 µM; IC50 (CYP1A2): > 20 µM; IC50 (CYP2C19): > 20 µM
3 | 100 |  | C[C@@H](Cn1c(=O)[nH]/c(=N\c2ccc(Oc3cccc(F)n3)cc2)n(Cc2ccc(F)cc2F)c1=O)C(=O)O [Compound I-029] | 0.017 |  | 
4 |  |  | C[C@@H](Cn1c(=O)[nH]/c(=N\c2ccc(Oc3cnccn3)cc2)n(Cc2ccc(Cl)cc2)c1=O)C(=O)O [Compound R-019] | 0.018 |  | IC50 (Rat P2X3 receptor): 0.008 µM
5 |  |  | Cc1ccc(Cn2c(=O)n(C[C@H](C)C(=O)O)c(=O)[nH]/c2=N\c2ccc(Oc3ncccc3F)cc2)cc1 [Compound I-056] | 0.018 | 0.023 | 

Row | Compound | Metabolism Stability [3] [%] | solubility at 18 h [4] [µM] | fraction unbound at 24 h, 2 μg/mL [1] | IC50 (human P2X3 receptor) [µM] | further results
6 | O=c1[nH]/c(=N\c2ccc(Oc3ccc(F)cn3)cc2)n(Cc2ccc(Cl)cc2)c(=O)n1[C@H]1C[C@H](C(=O)O)C1 [Compound I-019] | 96 | > 50 | 0.01 | 0.068 | IC50 (Rat P2X3 receptor): 0.011 µM
7 | C[C@@H](Cn1c(=O)[nH]/c(=N\c2ccc(Oc3cc(F)ccn3)cc2)n(Cc2ccc(Cl)cc2)c1=O)C(=O)O [Compound I-070] | 103 |  |  | 0.037 | 
